In test [1] the target is T1, cytoplasmic domain of the human CSF-1R (Homo sapiens, UniProt P07333).
T1 construct: Recombinant protein corresponding to the cytoplasmic domain of the human CSF-1R; purchased Invitrogen Corporation, Carlsbad, Calif; PV3249
T1 sequence (P07333 539-972 limits assumed): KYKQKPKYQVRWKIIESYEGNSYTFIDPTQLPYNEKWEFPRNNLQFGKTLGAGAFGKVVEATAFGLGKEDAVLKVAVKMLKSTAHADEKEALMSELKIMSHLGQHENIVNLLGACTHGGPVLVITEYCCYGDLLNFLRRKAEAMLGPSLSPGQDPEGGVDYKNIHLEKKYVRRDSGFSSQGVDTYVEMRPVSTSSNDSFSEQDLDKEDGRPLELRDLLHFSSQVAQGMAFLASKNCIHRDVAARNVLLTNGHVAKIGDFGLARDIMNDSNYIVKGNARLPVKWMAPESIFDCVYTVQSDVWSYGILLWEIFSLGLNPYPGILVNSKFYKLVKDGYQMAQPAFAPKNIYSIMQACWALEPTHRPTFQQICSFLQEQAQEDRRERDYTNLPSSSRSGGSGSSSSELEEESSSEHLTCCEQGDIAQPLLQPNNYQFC
Description: In vitro kinase assay for CSF-1R (AlphaScreen). The class given is biochemical. The settings on record: tested at about 1 μM; read-out: CSF1RK 1 percent inhibition. The procedure, abridged:
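Recombinant CSF-1R cytoplasmic domain (4 nM) phosphorylated biotinylated peptide (0.05 μM) at 1.0 μM ATP in HEPES with Mg2+/Mn2+, 2 h at room temperature, compounds from 25 μM in 3-fold steps. AlphaScreen anti-phosphotyrosine PT66 detection; IC50 by non-linear regression.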
In general terms: In Alpha technology, singlet oxygen from a donor bead excites a nearby acceptor bead.

The target in a further test is T2, cKIT (Homo sapiens, UniProt P10721).
T2 construct: The kinase domain of cKIT was assayed in 50 mM Hepes; purchased Upstate 14-559
Description: cKIT kinase in vitro biochemical assay (alphascreen). Conditions: tested at about 1 μM; read-out: CKIT percent inhibition.

The next test has as its target T3, PDGFRb (Homo sapiens, UniProt P09619).
T3 construct: The kinase domain of PDGFRβ was assayed in 50 mM Hepes; purchased Invitrogen P3082
Description: PDGFRb kinase in vitro biochemical assay (alphascreen). The settings on record: tested at about 1 μM; read-out: PDGF RK BETA percent inhibition.

Test [2] concerns MNFS60 (murine AML cells). Description: Cell viability assay in MCSF dependent MNFS60 cells (Cell Titer Glo). The class given is cell-based. The settings on record: Mus musculus; tested at about 1 μM; MCSF 10 ng/mL, 72 hrs; read-out: CPEC50 MNFS60MCSF percent inhibition. The procedure:
Cell viability was assessed by Cell Titer Glo, Promega. MNFS60 (murine AML cells) were seeded in TC treated 96-well plates at a density of 5,000 cells per well in RPMI-1640, 10% FBS, and 1% Penicillin Streptomycin prior to addition of compound. Test compounds were serially diluted (3 fold) in DMSO to 500× the final concentration. For each concentration of test compound, 2 μl (500×) aliquots of compound or 100% DMSO (control) were diluted in 500 μl of culture medium that contained 2× final concentration of growth factor MCSF for 2× concentration and then diluted 1× on the cells. Final concentration of MCSF is 10 ng/mL. Cells were incubated for 72 hrs at 37° C., 5% CO2. After the incubation 100 μl Cell Titer Glo is added to each well to determine viable cells. The assay was performed according to the manufacturer's instruction (Promega Corporation, Madison, Wis. USA). Each experimental condition was performed in triplicate. Raw data was imported in Abase and EC50s calculated with XL-fit data analysis software: Relative light units of wells that contained cells without MCSF in the media and as a consequence didn't grow were defined as 100% inhibited.

The structures appear in SMILES notation.

T3 sequence (P09619 600-962 limits assumed): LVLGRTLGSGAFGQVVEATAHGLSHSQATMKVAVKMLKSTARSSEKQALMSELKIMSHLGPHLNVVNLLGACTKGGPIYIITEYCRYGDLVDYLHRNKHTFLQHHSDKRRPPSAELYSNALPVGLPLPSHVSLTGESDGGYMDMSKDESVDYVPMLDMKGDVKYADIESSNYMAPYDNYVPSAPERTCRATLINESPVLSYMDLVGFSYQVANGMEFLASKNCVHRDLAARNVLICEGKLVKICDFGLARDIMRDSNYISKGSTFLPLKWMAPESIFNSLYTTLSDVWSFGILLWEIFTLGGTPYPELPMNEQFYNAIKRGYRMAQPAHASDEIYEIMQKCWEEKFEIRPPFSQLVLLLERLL
T2 sequence (P10721 589-937 limits assumed): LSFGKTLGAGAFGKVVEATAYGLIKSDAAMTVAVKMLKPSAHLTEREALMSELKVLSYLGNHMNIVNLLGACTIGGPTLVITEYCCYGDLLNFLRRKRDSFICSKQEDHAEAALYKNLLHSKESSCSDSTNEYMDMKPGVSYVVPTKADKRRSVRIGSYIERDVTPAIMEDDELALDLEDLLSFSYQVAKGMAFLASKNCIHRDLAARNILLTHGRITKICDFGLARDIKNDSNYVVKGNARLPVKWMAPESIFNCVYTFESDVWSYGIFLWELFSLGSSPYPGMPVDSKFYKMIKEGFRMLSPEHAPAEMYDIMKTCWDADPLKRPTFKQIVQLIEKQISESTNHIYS

Regarding `C[C@H](Nc1nc2ccc(Oc3ccnc(-c4cnn(C)c4)n3)cc2s1)C1CCCCC1` [Compound 30, (S)-N-(1-cyclohexylethyl)-6-(2-(1-methyl-1H-pyrazol-4-yl)pyrimidin-4-yloxy)benzo[d] thiazol-2-amine], the inhibition at 1 µM in test [1] amounted to 100%; at cKIT, 24%; at PDGFRb, 21%; in test [2] it was 100%.

Take `C[C@H](Nc1nc2ccc(Oc3ccnc(-c4ccc(N)nc4)n3)cc2s1)C1CCCCC1` [Compound 33, (S)-6-(2-(6-aminopyridin-3-yl)pyrimidin-4-yloxy)-N-(1-cyclohexylethyl) benzo[d]thiazol-2-amine]: the inhibition at 1 µM in test [1] was determined as 100%; on cKIT, 32%; on PDGFRb, 22%; in test [2], 78%.

Turning to `C[C@H](Nc1nc2ccc(Oc3ccnc(-c4ccnn4C)n3)cc2s1)C1CCCCC1` [Compound 34, (S)-N-(1-cyclohexylethyl)-6-(2-(1-methyl-1H-pyrazol-5-yl)pyrimidin-4-yloxy)benzo[d]thiazol-2-amine], the inhibition at 1 µM was 100% in test [1], 21% on cKIT, 6% on PDGFRb and 19% in test [2].

Regarding `c1nc(Oc2ccc3nc(NCC4CCCCC4)sc3c2)c2ccsc2n1` [Compound 37, N-(cyclohexylmethyl)-6-(thieno[2,3-d]pyrimidin-4-yloxy) benzo[d]thiazol-2-amine], the inhibition at 1 µM was 100% in test [1], 75% at cKIT, 39% on PDGFRb and 0% in test [2].

Take `C[C@H](Nc1nc2ccc(Oc3cc(-n4cncn4)ncn3)cc2s1)C1CCCCC1` [Compound 41, (S)-6-(6-(1H-1,2,4-triazol-1-yl)pyrimidin-4-yloxy)-N-(1-cyclohexylethyl) benzo[d]thiazol-2-amine]: the inhibition at 1 µM in test [1] was determined as 99%; on cKIT, 28%; on PDGFRb, 0%; in test [2], 0%.

`Cn1ncc2c(Oc3ccc4nc(NCC5CCCCC5)sc4c3)ncnc21` [Compound 44, N-(cyclohexylmethyl)-6-(1-methyl-1H-pyrazolo[3,4-d]pyrimidin-4-yloxy)benzo[d]thiazol-2-amine]: the inhibition at 1 µM in test [1] came out at 99%; at cKIT it was 14%; on PDGFRb, 19%; in test [2], 0%.

For the molecule `Cn1cc(-c2cncc(Oc3ccc4nc(N[C@@H]5CCCC[C@H]5O)sc4c3)c2)cn1` [Compound 46, (1R,2R)-2-(6-(5-(1-methyl-1H-pyrazol-4-yl)pyridin-3-yloxy)benzo[d]thiazol-2-ylamino)cyclohexanol], the inhibition at 1 µM in test [1] was found to be 100%; on cKIT, 60%; at PDGFRb it was 12%; in test [2], 100%.

Regarding `Nc1ccc(-c2cncc(Oc3ccc4nc(N[C@@H]5CCCC[C@H]5O)sc4c3)c2)cn1` [Compound 47, (1R,2R)-2-(6-(6′-amino-3,3′-bipyridin-5-yloxy)benzo[d]thiazol-2-ylamino) cyclohexanol], the inhibition at 1 µM in test [1] turned out to be 100%; at cKIT, 63%; on PDGFRb it was 1%; in test [2] it was 100%.

Turning to `CNC(=O)c1ccc(Oc2ccc3nc(NCC4CCCCC4)sc3c2)cn1` [Compound 48, 5-(2-(cyclohexylmethylamino)benzo [d]thiazol-6-yloxy)-N-methylpicolinamide], the inhibition at 1 µM in test [1] was 96%; at cKIT it was 22%; at PDGFRb, 8%; in test [2], 0%.

On to `CNC(=O)c1cncc(Oc2ccc3nc(N[C@@H](C)C4CCCCC4)sc3c2)n1` [Compound 51, (S)-6-(2-(1-cyclohexylethylamino)benzo[d]thiazol-6-yloxy)-N-methylpyrazine-2-carboxamide], for which the inhibition at 1 µM in test [1] is 97%; on cKIT, 32%; on PDGFRb, 14%; in test [2], 3%.

Take `CNC(=O)c1ccc(Oc2ccc3nc(N[C@@H](C)C4CCCCC4)sc3c2)cn1` [Compound 53, (S)-5-(2-(1-cyclohexylethylamino)benzo[d]thiazol-6-yloxy)-N-methylpicolinamide]: the inhibition at 1 µM in test [1] was 98%; on cKIT it was 12%; at PDGFRb, 13%; in test [2] it was 13%.

`O[C@@H]1CCCC[C@H]1Nc1nc2ccc(Oc3cncc(-c4cncs4)c3)cc2s1` [Compound 70, (1R,2R)-2-(6-(5-(thiazol-5-yl)pyridin-3-yloxy)benzo[d]thiazol-2-ylamino) cyclohexanol]: the inhibition at 1 µM in test [1] was determined as 100%; on cKIT it was 64%; on PDGFRb, 13%; in test [2], 100%.

With `N#Cc1ccc(-c2cncc(Oc3ccc4nc(N[C@@H]5CCCC[C@H]5O)sc4c3)c2)cn1` [Compound 73, 5′-(2-((1R,2R)-2-hydroxycyclohexylamino)benzo[d]thiazol-6-yloxy)-3,3′-bipyridine-6-carbonitrile], the inhibition at 1 µM in test [1] was 99%; at cKIT, 44%; on PDGFRb, 3%; in test [2], 23%.

As to `COc1cncc(-c2cncc(Oc3ccc4nc(N[C@@H]5CCCC[C@H]5O)sc4c3)c2)c1` [Compound 74, (1R,2R)-2-(6-(5′-methoxy-3,3′-bipyridin-5-yloxy)benzo [d]thiazol-2-ylamino) cyclohexanol], the inhibition at 1 µM is 100% in test [1], 59% on cKIT, 1% on PDGFRb and 100% in test [2].

For `O=C(c1cncc(-c2cncc(Oc3ccc4nc(N[C@@H]5CCCC[C@H]5O)sc4c3)c2)c1)N1CCOCC1` [Compound 75, (5′-(2-((1R,2R)-2-hydroxycyclohexylamino)benzo[d]thiazol-6-yloxy)-3,3′-bipyridin-5-yl) (morpholino)methanone], the inhibition at 1 µM was found to be 100% in test [1], 28% on cKIT, 5% at PDGFRb and 33% in test [2].

With `CN(C)c1ncc(-c2cncc(Oc3ccc4nc(N[C@@H]5CCCC[C@H]5O)sc4c3)c2)cn1` [Compound 76, (1R,2R)-2-(6-(5-(2-(dimethylamino)pyrimidin-5-yl)pyridin-3-yloxy)benzo [d]thiazol-2-ylamino) cyclohexanol], the inhibition at 1 µM in test [1] was found to be 100%; at cKIT, 24%; on PDGFRb, 0%; in test [2] it was 54%.

On to `CCn1cc(-c2cncc(Oc3ccc4nc(N[C@@H]5CCCC[C@H]5O)sc4c3)c2)cn1` [Compound 80, (1R,2R)-2-(6-(5-(1-ethyl-1H-pyrazol-4-yl)pyridin-3-yloxy)benzo[d]thiazol-2-ylamino)cyclohexanol], for which the inhibition at 1 µM in test [1] was 100%; at cKIT, 66%; on PDGFRb, 0%; in test [2] it was 100%.

As usually defined, the inhibition is the percentage by which the read-out fell short of the control.

Values taken from patent US8293769B2, “CSF-1R inhibitors, compositions, and methods of use” (Novartis AG, priority 2008, dated 2012).
